Measurements as given in patent publication US20240262808A1, “XANTHINE OXIDASE INHIBITOR” (JIANGSU ATOM BIOSCIENCE AND PHARMACEUTICAL CO., LTD., priority 2021, published 2024).
pIC50: −log10 of the molar value.

Experiments:
[1] = biological target: T1, Xanthine Oxidase (XO) (Bos taurus, UniProt P80457); assay: Xanthine oxidase activity inhibition test (XO/HRP double enzyme coupling, Ampliflu Red fluorescence); format: biochemical; details: 30 min preincubation and 30 min reaction at 30° C., pH 7.5; read-out: Xanthine oxidase inhibitor activity IC50
T1 construct: purchased Sigma-Aldrich Co., LLC
T1 sequence (P80457 2-1332 limits assumed): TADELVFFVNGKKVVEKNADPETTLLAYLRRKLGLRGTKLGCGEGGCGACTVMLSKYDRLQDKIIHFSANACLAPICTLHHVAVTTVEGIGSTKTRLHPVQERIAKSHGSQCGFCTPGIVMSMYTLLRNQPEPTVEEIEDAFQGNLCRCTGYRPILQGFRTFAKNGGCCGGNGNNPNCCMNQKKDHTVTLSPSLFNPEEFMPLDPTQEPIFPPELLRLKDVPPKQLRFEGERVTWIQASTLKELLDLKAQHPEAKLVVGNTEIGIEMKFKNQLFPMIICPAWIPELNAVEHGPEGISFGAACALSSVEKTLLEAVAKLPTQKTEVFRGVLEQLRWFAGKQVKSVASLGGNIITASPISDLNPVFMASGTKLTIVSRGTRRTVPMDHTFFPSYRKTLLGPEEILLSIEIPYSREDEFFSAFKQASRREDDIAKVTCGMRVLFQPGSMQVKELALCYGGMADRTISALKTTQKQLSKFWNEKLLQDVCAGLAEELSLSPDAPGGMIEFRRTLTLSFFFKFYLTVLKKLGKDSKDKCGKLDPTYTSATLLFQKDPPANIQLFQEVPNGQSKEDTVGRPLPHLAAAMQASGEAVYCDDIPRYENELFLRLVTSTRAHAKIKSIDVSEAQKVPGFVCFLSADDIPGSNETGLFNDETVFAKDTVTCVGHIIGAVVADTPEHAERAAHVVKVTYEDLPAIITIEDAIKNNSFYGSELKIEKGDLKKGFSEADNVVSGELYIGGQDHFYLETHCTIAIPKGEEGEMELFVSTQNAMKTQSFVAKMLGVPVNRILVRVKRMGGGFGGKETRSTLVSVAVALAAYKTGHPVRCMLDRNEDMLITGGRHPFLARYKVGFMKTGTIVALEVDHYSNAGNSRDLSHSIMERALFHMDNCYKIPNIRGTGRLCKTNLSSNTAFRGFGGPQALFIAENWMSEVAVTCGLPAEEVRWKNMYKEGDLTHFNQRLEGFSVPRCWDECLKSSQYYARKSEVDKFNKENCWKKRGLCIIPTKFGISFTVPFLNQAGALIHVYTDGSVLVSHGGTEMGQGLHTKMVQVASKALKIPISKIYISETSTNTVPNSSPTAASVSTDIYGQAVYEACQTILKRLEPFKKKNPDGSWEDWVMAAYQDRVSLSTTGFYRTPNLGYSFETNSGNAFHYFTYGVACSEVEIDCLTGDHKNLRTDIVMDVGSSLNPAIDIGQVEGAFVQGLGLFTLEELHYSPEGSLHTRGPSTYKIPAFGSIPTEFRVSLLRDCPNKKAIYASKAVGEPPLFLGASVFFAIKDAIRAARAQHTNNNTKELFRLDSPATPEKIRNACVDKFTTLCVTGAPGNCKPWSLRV
Experimental: A double enzyme coupling reaction of Xanthine Oxidase (XO) and Horseradish Peroxidase (HRP) and their substrates was used to test the activity inhibition of xanthine oxidase. First, xanthine oxidase oxidized hypoxanthine to produce xanthine and hydrogen peroxide, and further oxidized xanthine to produce uric acid and hydrogen peroxide. […] The fluorescence intensity of resorufin was determined by fluorescence enzyme spectrometer in direct proportion to xanthine oxidase activity.
In 96-well polypropylene reaction plate, the test compound was diluted into a 200-fold concentration of solution with DMSO through 2.5-fold serial dilution, and further diluted in ultra-pure water to obtain a series of 3-fold concentration of diluted solution.
Reaction solution A: 6 mU/mL xanthine oxidase solution was prepared in 0.1M Tris-HCl (pH7.5) buffer solution.
Reaction solution B: a mixture of 0.6 U/mL horseradish peroxidase solution, 0.15 mM Ampliflu Red and 0.3 mM hypoxanthine in 0.1M Tris-HCl (pH 7.5) buffer solution. The solution was protected from light at 4° C. and was prepared when it was ready for use.
9 μL reaction solution A was mixed with 3-fold concentration serial dilution solution of 9 μL test compound in a 96-well test plate, placed on a flat plate oscillator, and mixed at 30° C. at 100 rpm for 30 min. Then 9 μL reaction solution B was added. The enzyme reaction was carried out at 30° C. for 30 minutes. The fluorescence intensity at excitation light 530 nm and emission light 590 nm was measured by a microplate reader. The fluorescence intensity of the control without xanthine oxidase was 0%, and that of the control without the test compound was 100%.

[2] = tested on: patients with gout; details: cited from earlier work
[3] = tested on: rats with hyperuricemia induced by potassium oxonate; assay: Treatment of hyperuricemia in rats induced by potassium oxonate, serum uric acid; format: in vivo, SD rat; details: for Uric acid 1 h: 1 h after potassium oxonate; for Uric acid 3 h: 3 h after potassium oxonate; for Uric acid 5 h: 5 h after potassium oxonate; for Uric acid 0 h: before potassium oxonate injection
Experimental: Compounds 15, 24 and 38 were white powder, and compound 57 was light yellow powder, which was ground with 0.5% CMC-Na before use and prepared into suspension with corresponding concentrations (0.2 and 0.4 mg/mL) for gavage.
SD rat, SPF grade, male, weighing 180-220 g, purchased from Shanghai Slake Experimental Animal Co., Ltd., production license number: SCXK (Hu) 2017-0005, quality certificate number: 20170005050604.
72 SD rats, male, weighed about 200-230 g after one week of acclimatization. […] Drugs for each group were prepared into suspension with corresponding concentration, and the administration volume was 0.5 mL/100 g.
After purchased and fed for acclimatization, the rats in each group were fasted for 12 h, and the model was established by intraperitoneal injection with potassium oxonate at the dose of 300 mg/kg, and each of the test drug groups were administrated once by gavage after model establishment. Blood samples were collected from posterior orbital venous plexus before and 1, 3 and 5 h after potassium oxonate injection, centrifugated at 3500 rpm for 10 min, and 30 μL serum was taken to determine uric acid levels at each time point.
Then in two consecutive days, rat models were established with potassium oxonate by intraperitoneal injection at a dose of 300 mg/kg every day, and each test drug group was administrated once by gavage after model establishment. On the third day of administration, the rats were fasted for 12 h, and with the same test method on the first day, blood samples were collected from the posterior orbital venous plexus before and 1, 3 and 5 h after potassium oxonate injection, centrifuged at 3500 rpm for 10 min, and 30 μL serum was taken to determine the uric acid level at each time point.
The measurement data of each experiment were expressed as (mean)±s (standard deviation). ANOVA-Dunnett T test was used to investigate the significance between groups, and P<0.05 was used as a significant index, P<0.01 was used as a very significant index.

[4] = 1-day administration, 1 mg/kg gavage
[5] = 1-day administration, 2 mg/kg gavage
[6] = 1-day administration, 1 and 2 mg/kg groups, at 1, 3 and 5 h after model establishment
[7] = 3-day administration, 1 mg/kg gavage
[8] = 3-day administration, 2 mg/kg gavage
[9] = 3-day administration, 1 and 2 mg/kg groups, at 1, 3 and 5 h after model establishment

Structure (SMILES) | pIC50 [1] | Uric acid 1 h [3, 4] [µmol/L] | Uric acid 3 h [3, 4] [µmol/L] | Uric acid 5 h [3, 4] [µmol/L] | Uric acid 0 h [3, 4] [µmol/L] | Uric acid 1 h [3, 5] [µmol/L] | Uric acid 3 h [3, 5] [µmol/L] | Uric acid 0 h [3, 5] [µmol/L] | Uric acid 1 h [3, 7] [µmol/L] | Uric acid 3 h [3, 7] [µmol/L] | Uric acid 5 h [3, 7] [µmol/L] | Uric acid 0 h [3, 7] [µmol/L] | Uric acid 1 h [3, 8] [µmol/L] | Uric acid 3 h [3, 8] [µmol/L] | Uric acid 0 h [3, 8] [µmol/L] | Uric acid 5 h [3, 5] [µmol/L] | Uric acid 5 h [3, 8] [µmol/L] | other results
CC(C)Cn1nc(C#N)c2cc(-n3cc(C(=O)O)cn3)ccc21 [Compound 32, 1-(3-cyano-1-isobutyl-1H-indazole-5-yl)-1H-pyrazole-4-formic acid] | 8.29 |  |  |  |  |  |  |  |  |  |  |  |  |  |  |  |  | 
N#Cc1nn(C2CC2)c2ccc(-n3cc(C(=O)O)cn3)cc12 [Compound 50, 1-(3-cyano-1-cyclopropyl-1H-indazole-5-yl)-1H-pyrazole-4-formic acid] | 8.00 |  |  |  |  |  |  |  |  |  |  |  |  |  |  |  |  | 
CCCn1nc(C#N)c2cc(-n3cc(C(=O)O)cn3)ccc21 [Compound 35, 1-(3-cyano-1-propyl-1H-indazole-5-yl)-1H-pyrazole-4-formic acid] | 7.93 |  |  |  |  |  |  |  |  |  |  |  |  |  |  |  |  | 
Cc1nc(-c2ccc(OCC(C)C)c(C#N)c2)sc1C(=O)O [Febuxostat, reference compound] |  | 76.4 ± 11.4 | 91.3 ± 13.3 | 65.7 ± 12.4 | 81.3 ± 7.8 | 59.7 ± 6.6 | 60.7 ± 15.0 | 67.2 ± 1.9 | 53.0 ± 12.0 | 71.4 ± 23.5 | 61.1 ± 8.1 | 66.0 ± 11.3 | 47.5 ± 7.9 | 51.8 ± 6.7 | 65.5 ± 8.8 |  |  | All-cause mortality, HR ([2]; febuxostat vs allopurinol group, 95% CI 1.01-1.47): 1.22; Cardiovascular mortality, HR ([2]; febuxostat vs allopurinol group, 95% CI 1.03-1.73): 1.34; Overall risk of adverse cardiovascular events, HR ([2]; febuxostat vs allopurinol group, average of 32 months of treatment, 95% CI 0.87-1.23): 1.03; Sudden cardiac death, share of group ([2]; patients with gout, per treatment group): 2.7%; Serum uric acid level compared with model group [3, 6]: significantly decreased; Serum uric acid level compared with model group [3, 9]: significantly decreased
N#Cc1cn(C2CCOC2)c2ccc(-n3ncc(C(=O)O)n3)cc12 (stereo not drawn) [Compound 44, 2-[3-cyano-1-(tetrahydrofuran-3-yl)-1H-indole-5-yl]-2H-1,2,3-triazole-4-formic acid] | 8.02 |  |  |  |  |  |  |  |  |  |  |  |  |  |  |  |  | 
CC(C)n1nc(C#N)c2cc(-n3cc(C(=O)O)cn3)ccc21 [Compound 38, 1-(3-cyano-1-isopropyl-1H-indazole-5-yl)-1H-pyrazole-4-formic acid] | 8.49 | 70.6 ± 7.7 | 74.6 ± 19.6 | 64.3 ± 10.6 | 75.6 ± 6.8 | 66.5 ± 7.5 | 77.4 ± 9.2 | 73.1 ± 6.7 | 62.1 ± 14.1 | 69.4 ± 16.1 | 55.1 ± 5.8 | 61.0 ± 5.7 | 54.4 ± 5.1 | 73.1 ± 9.4 | 60.9 ± 8.1 | 56.8 ± 4.0 | 58.1 ± 9.6 | Serum uric acid level compared with model group [3, 6]: significantly decreased; Serum uric acid level compared with model group [3, 9]: significantly decreased
CC(C)n1nc(C#N)c2cc(-n3ncc(C(=O)O)n3)ccc21 [Compound 24, 2-(3-cyano-1-isopropyl-1H-indazole-5-yl)-2H-1,2,3-triazole-4-formic acid] | 8.44 | 96.2 ± 9.3 | 131.0 ± 18.9 | 96.8 ± 13.6 | 65.3 ± 5.8 | 96.8 ± 5.4 | 126.4 ± 14.4 | 77.6 ± 9.2 | 105.5 ± 12.7 | 155.3 ± 38.2 | 102.6 ± 8.3 | 87.8 ± 16.2 | 97.2 ± 27.5 | 104.0 ± 5.8 | 90.4 ± 9.1 | 105.1 ± 16.6 | 97.0 ± 14.6 | Serum uric acid level compared with model group ([3]; 1-day administration, 1 and 2 mg/kg groups, at 1 h after model establishment, P<0.01): significantly decreased; Serum uric acid level compared with model group ([3]; 3-day administration, 2 mg/kg group, at 3 h after model establishment, P<0.01): significantly decreased
CC(C)n1nc(C#N)c2cc(-c3ccc(C(=O)O)s3)ccc21 [Compound 28, 2-(3-cyano-1-isopropyl-1H-indazole-5-yl)thiophen-2-formic acid] | 8.10 |  |  |  |  |  |  |  |  |  |  |  |  |  |  |  |  | 

Second part, led by results:

pIC50 [1] | Structure (SMILES) | Uric acid 1 h [3, 4] [µmol/L] | Uric acid 3 h [3, 4] [µmol/L] | Uric acid 5 h [3, 4] [µmol/L] | Uric acid 0 h [3, 4] [µmol/L] | Uric acid 1 h [3, 5] [µmol/L] | Uric acid 3 h [3, 5] [µmol/L] | Uric acid 0 h [3, 5] [µmol/L] | Uric acid 1 h [3, 7] [µmol/L] | Uric acid 3 h [3, 7] [µmol/L] | Uric acid 5 h [3, 7] [µmol/L] | Uric acid 0 h [3, 7] [µmol/L] | Uric acid 1 h [3, 8] [µmol/L] | Uric acid 3 h [3, 8] [µmol/L] | Uric acid 0 h [3, 8] [µmol/L] | Uric acid 5 h [3, 5] [µmol/L] | Uric acid 5 h [3, 8] [µmol/L] | other results
8.77 | N#Cc1cn(C2CCC2)c2ccc(-n3ncc(C(=O)O)n3)cc12 [Compound 47, 2-(3-cyano-1-cyclobutyl-1H-indole-5-yl)-2H-1,2,3-triazole-4-formic acid] |  |  |  |  |  |  |  |  |  |  |  |  |  |  |  |  | 
8.54 | CC(C)n1nc(C#N)c2cc(-c3cc(C(=O)O)ccn3)ccc21 [Compound 57, 2-(3-cyano-1-isopropyl-1H-indazole-5-yl) isonicotinic acid] | 74.7 ± 11.3 | 99.5 ± 12.4 | 85.7 ± 8.5 | 71.2 ± 8.3 | 64.0 ± 13.5 | 107.4 ± 12.5 | 74.5 ± 8.9 | 57.5 ± 9.3 | 75.3 ± 6.3 | 90.0 ± 5.9 | 70.8 ± 8.6 | 63.6 ± 11.7 | 75.2 ± 16.9 | 72.7 ± 15.6 | 94.8 ± 6.4 | 81.1 ± 8.0 | Serum uric acid level compared with model group [3, 6]: significantly decreased; Serum uric acid level compared with model group ([3]; 3-day administration, 1 and 2 mg/kg groups, at 1 and 3 h after model establishment, P<0.01): significantly decreased
8.74 | CC(C)n1cc(C#N)c2cc(-n3ncc(C(=O)O)n3)ccc21 [Compound 15, 2-(3-cyano-1-isopropyl-1H-indole-5-yl)-2H-1,2,3-triazole-4-formic acid] | 104.3 ± 20.3 | 121.6 ± 12.2 | 118.4 ± 15.3 | 72.0 ± 6.7 | 98.1 ± 6.3 | 130.7 ± 11.5 | 74.1 ± 10.3 | 78.4 ± 12.1 | 166.1 ± 37.5 | 100.0 ± 12.5 | 70.9 ± 12.8 | 88.2 ± 21.3 | 139.8 ± 32.7 | 64.1 ± 4.8 | 109.7 ± 22.5 | 97.6 ± 21.0 | Serum uric acid level compared with model group ([3]; 1-day administration, 2 mg/kg group, at 1 h after model establishment, P<0.01): significantly decreased
8.76 | N#Cc1cn(CC2CC2)c2ccc(-n3ncc(C(=O)O)n3)cc12 [Compound 41, 2-(3-cyano-1-cyclopropylmethyl-1H-indole-5-yl)-2H-1,2,3-triazole-4-formic acid] |  |  |  |  |  |  |  |  |  |  |  |  |  |  |  |  | 
